Assay results from patent US20170073324A1, “Bifidenone Compositions and Methods of Use” (Sequoia Sciences, Inc., priority 2015, published 2017).
Where two headings read alike, the source gives them in different places.

Assays:
[1] = test system: NCI-H460 (large cell lung carcinoma) cells; test: Antiproliferation assay (CELLTITER 96 AQueous, 72 h); format: cell-based; settings: Homo sapiens
Method: Bifidenone was tested for its ability to inhibit the proliferation of human cancer cells in vitro as described in the following paragraph. IC50 is defined as the concentration of compound necessary to achieve 50% of the maximum growth inhibition.
For the antiproliferation assay, NCI-H460 (large cell lung carcinoma) or M14 (amelanotic melanoma) cells were grown in RPMI-1640 with 10% FBS supplemented with L-glutamine and HEPES. Cells were seeded into 96-well plates at 5×10^2 to 5×10^4 cells/well and allowed to adhere overnight; the medium was then removed. A stock solution of test compound in DMSO was diluted in medium to generate a series of working solutions. Aliquots (100 μL) of the working solutions were then added to the appropriate test wells to expose cells to the final concentrations of compound in a total volume of 100 μL. Seven different concentrations were tested, with 2-5 wells per concentration. Camptothecin was used as a positive control; wells containing vehicle without compound were used as negative controls. Plates were kept for 72 h in a 37° C., 5% CO2 incubator. After incubation, viable cells were detected with the CELLTITER 96 AQueous Non-Radioactive Cell Proliferation Assay (Promega), and IC50 values were determined using GraphPad Prism 5 software.

tubulin = test: In vitro tubulin polymerization assay; format: biochemical; settings: absorbance readout, FIG. 3
Method: To test the hypothesis that bifidenone inhibits cell proliferation by interfering with microtubule dynamics, it was tested in an in vitro tubulin polymerization assay. FIG. 3 illustrates inhibition of tubulin polymerization by bifidenone. Increased absorbance corresponds to increased polymerization.

[2] = test system: NCI-H460 lung cancer cells; test: Cell cycle analysis (propidium iodide, flow cytometry); format: cell-based, human; settings: NCI-H460, 1, 2, or 3× the IC50 for 6, 18, or 24 h
Method: Antitubulin agents typically interfere with mitosis by disrupting the microtubule dynamics necessary for cell division. […] Cells were then treated with propidium iodide and analyzed using flow cytometry.

NCI-H460 cells = test: Western blot analysis of G2/M markers; format: cell-based, human; settings: NCI-H460, 21 h
Method: Nocodazole is known to cause G2/M arrest. Cell lysates were analyzed by western blot using the antibodies indicated on the left. Individual protein bands are designated on the right.

[3] = test system: caspases 3 and 7 in NCI-H460 lung cancer cells; test: Caspase 3/7 luminescent apoptosis assay; format: cell-based, human; settings: NCI-H460, varying concentrations
Method: FIG. 6 illustrates Caspase assay. Enzyme activity of caspases 3 and 7 was determined using a luminescent assay. NCI-H460 lung cancer cells were treated with varying concentrations of bifidenone or the known antitubulin agents paclitaxel or colchicine. The readout of relative light units is proportional to total caspase 3 and 7 activity.

PARP and caspase-7 = test: Western blot of PARP and caspase-7 cleavage; format: cell-based; settings: FIG. 7
[4] = test system: colchicine binding site of tubulin; test: Ultrafiltration-based tubulin competition assay; settings: free ligand by LC/MS
Source text: (§1) In order to determine the binding site of bifidenone on tubulin, a published ultrafiltration-based competition assay was used. In this assay, tubulin is allowed to bind with a known ligand, and then free ligand is separated by ultrafiltration and analyzed by LC/MS. In the presence of a competitor, the concentration of free ligand increases. […] FIG. 8 illustrates tubulin competition assay. Each graph depicts the amount of unbound compound detected in the presence of varying concentrations of competitors. Known competitors were used as positive controls: podophyllotoxin for the colchicine site (left), vinblastine for the vincristine site (center), and docetaxel for the paclitaxel site (right). Amounts of free compound are expressed as percentages normalized to the amount of free compound detected in the presence of 100 μM known competitor.

[5] = test system: paclitaxel binding site of tubulin; test: Ultrafiltration-based tubulin competition assay; settings: free ligand by LC/MS
Source text: as §1

[6] = Mouse plasma concentration after IP injection; format: in vivo, mice
Method: The bioavailabilities of certain compounds were examined in mice. Administration of the compounds was performed by intraperitoneal (IP) injection using a vehicle as known to those skilled in the art. To measure compound concentrations in plasma, blood is collected by cardiac puncture at a specified time after dosing. It is then centrifuged in a plasma separator tube with NaEDTA/NaF as the anticoagulant, and the resulting plasma is stored at −80° C. For analysis, an internal standard is added to a 200 μL aliquot of plasma, and the aliquot is extracted with ethyl acetate. The ethyl acetate extract is analyzed by LC/MS and quantitated using a standard curve prepared by adding known amounts of test compound and internal standard to 200 μL aliquots of blank mouse plasma.
Many vehicles can be used to examine bioavailability. Prior to administration, each vehicle was optimized based on compound solubility according to the formulation research conducted by Uckun et at (Uckun, F. M., Tibbles, H., Erbeck, D., Venkatachalam, T. K., Qazi, S., 2007). In vivo pharmacokinetics and toxicity of a novel hydrophilic oral formulation of the potent non-nucleoside reverse transcriptase inhibitor compound N′-[2-(2-thiophene)ethyl]-N′-[2-(5-bromopyridyl)]-thiourea (HI-443). Arzneimittelforschung 57, 218-226.). […] The concentration of PEG400 is modulated depending upon solubility of the compounds and the amount of water phase added.
With larger injections (75-100 mg/kg), plasma concentrations were >4 times the IC50 at 6 h.

[7] = Epimerization by TFA in HPLC solvents; format: physicochemical; settings: TFA (0.05%) in HPLC solvents
Method: To obtain additional bifidenone for antiproliferation assays, the remaining material from the Beilschmiedia specimen was fractionated. […] Consequently, future isolations were performed without TFA in the semipreparative steps. Ultimately, 79 μg of bifidenone was isolated.

IC50 ([1]; NCI-H460, 72 h, read-out: IC50 against NCI-H460): 360 nM
IC50 ([1]; NCI-H460, as restated in Example VII, read-out: IC50 against NCI-H460 human lung cancer cells): 360 nM
competition for the colchicine binding site [4]: competes for the colchicine binding site
competition for the paclitaxel binding site [5]: weakly for the paclitaxel binding site
change of plasma concentration with vehicle ([6]; initial formulation diluted with up to 20% water): not diminished
concentration at 1 h ([6]; mouse, plasma, 1 h post-injection, 40 mg/kg IP, vehicle 40% propylene glycol, 20% TWEEN-20, 20% PEG400, 20% ethanol): > 360 nM
change of plasma levels with vehicle ([6]; propylene glycol decreased to 25%): diminished
change of plasma levels with vehicle ([6]; propylene glycol increased to 45% and TWEEN-20 decreased to <3%): increased or were not diminished
stability to TFA [7]: prone to epimerization
Structure (SMILES): C=CC[C@H]1C[C@]2([C@@H](C)Cc3ccc(OC)c(OC)c3)OCOC2=CC1=O [bifidenone, (6S,7aR)-6-Allyl-7a-((S)-1-(3,4-dimethoxyphenyl)propan-2-yl)-7,7a-dihydrobenzo[d][1,3]dioxol-5(6H)-one]
inhibition of tubulin polymerization (tubulin): inhibits tubulin polymerization in a dose-dependent manner
cell cycle effect [2]: causes arrest in the G2/M phase of the cell cycle
protein expression and phosphorylation patterns (Histone H3 Ser10, Myt1, Aurora A/B/C, cdc2 Tyr15) (NCI-H460 cells): consistent with G2/M arrest
apoptosis by enzymatic activity of caspases 3 and 7 [3]: undergo apoptosis
cleavage of caspase-7 and PARP (PARP and caspase-7): cleavage of caspase-7 and PARP occurred
